What all share (experiment): Postemergence herbicidal activity, greenhouse, visual injury
What all share (format): in vivo, Papaver rhoeas
Conditions in all cases: 20-22 d after application

Experiment [1] concerns PAPRH-Susceptible (susceptible corn poppy). The protocol:
(§1) Seeds of the phenoxyalkanoic acid herbicide-resistant and susceptible plant species were planted in Sun Gro MetroMix® 306 planting mixture, which typically has a pH of 6.0 to 6.8 and an organic matter content of about 30 percent, in plastic pots with a surface area of 103.2 square centimeters (cm^2). When required to ensure good germination and healthy plants, a fungicide treatment and/or other chemical or physical treatment was applied. The plants were grown for 7-36 days (d) in a greenhouse with an approximate 14-hour (h) photo-period which was maintained at about 18° C. during the day and 17° C. during the night. Nutrients and water were added on a regular basis and supplemental lighting was provided with overhead metal halide 1000-Watt lamps as necessary. The plants were employed for testing when they reached the second or third true leaf stage.
(§2) Treatments consisted of the acid or esters of 4-amino-3-chloro-6-(4-chloro-2-fluoro-3-methoxyphenyl)pyridine-2-carboxylic acid (Compound I) and 2,4-D, mecoprop and 2-(4-chloro-2-methyl-phenoxy)acetic acid (MCPA) alone. Weighed amounts of the herbicides were dissolved in a volume of 97:3 volume-per-volume (v/v) acetone/dimethylsulfoxide (DMSO) to obtain concentrated solutions. […] The concentrated solutions of the test compound were diluted with the addition of an aqueous mixture containing acetone, water, isopropyl alcohol, DMSO, Agri-Dex crop oil concentrate, and Triton® X-77 surfactant in a 64.7:26.0:6.7:2.0:0.7:0.01 v/v ratio. Test compounds were diluted to the appropriate application rate with a dilution solution which was prepared by mixing the appropriate volume of 97:3 v/v acetone/DMSO and the appropriate volume of an aqueous mixture containing acetone, water, isopropyl alcohol, DMSO, Agri-Dex crop oil concentrate, and Triton® X-77 surfactant in a 64.7:26.0:6.7:2.0:0.7:0.01 v/v ratio. Compound requirements are based upon a 12 mL application volume at a rate of 187 liters per hectare (L/ha). Spray solutions of 2,4-D, mecoprop and MCPA were prepared by diluting an aliquot of the concentrated herbicide with an aqueous mixture containing 1.25% v/v Agri-Dex. 2,4-D, mecoprop and MCPA were applied at 1×, 2× and 4× of the recommended application rate.
(§3) Formulated compounds were applied to the plant material with an overhead Mandel track sprayer equipped with 8002E nozzles calibrated to deliver 187 L/ha over an application area of 0.503 square meters (m^2) at a spray height of 18 inches (43 centimeters (cm)) above average plant canopy. Control plants were sprayed in the same manner with the solvent blank.
(§4) The treated plants and control plants were placed in a greenhouse as described above and watered by sub-irrigation to prevent wash-off of the test compounds. After 20-22 d, the condition of the test plants as compared with that of the control plants was determined visually and scored on a scale of 0 to 100 percent where 0 corresponds to no injury and 100 corresponds to complete kill.

Experiment [2] concerns PAPRH-S1F00101 (phenoxyalkanoic acid herbicide-resistant corn poppy). The protocol:
as §1, §2, §3, §4

The test system of experiment [3] is PAPRH-S4F00103 (phenoxyalkanoic acid herbicide-resistant corn poppy). The protocol: as §1, §2, §3, §4
In experiment [4] the test system is PAPRH-S2F01502 (phenoxyalkanoic acid herbicide-resistant corn poppy). As to the method:
as §1, §2, §3, §4

For experiment [5], the system named is PAPRH-S4F00101 (phenoxyalkanoic acid herbicide-resistant corn poppy). As to the method:
as §1, §2, §3, §4

For the molecule `O=C(O)COc1ccc(Cl)cc1Cl` [2,4-D, (2,4-dichlorophenoxy)acetic acid], the “Activity (visual injury, 0 = no injury, 100 = complete kill) PAPRH-Susceptible” value in experiment [1] (800 g ae/ha) was determined as 85%; in experiment [1] (1600 g ae/ha), 94%; in experiment [1] (3200 g ae/ha) it was 99%. The “Activity (visual injury, 0 = no injury, 100 = complete kill) PAPRH-S1F00101” value in experiment [2] (800 g ae/ha) is listed as 21%; in experiment [2] (1600 g ae/ha) it was 16%; in experiment [2] (3200 g ae/ha) it was 50%. Further, the “Activity (visual injury, 0 = no injury, 100 = complete kill) PAPRH-S4F00103” value in experiment [3] (800 g ae/ha) turned out to be 21%; in experiment [3] (1600 g ae/ha), 19%; in experiment [3] (3200 g ae/ha), 59%. For the same molecule, the “Activity (visual injury, 0 = no injury, 100 = complete kill) PAPRH-S2F01502” value in experiment [4] (800 g ae/ha) is on record as 15%; in experiment [4] (1600 g ae/ha), 53%; in experiment [4] (3200 g ae/ha), 51%. Also, the “Activity (visual injury, 0 = no injury, 100 = complete kill) PAPRH-S4F00101” value is reported as 22% in experiment [5] (800 g ae/ha), 42% in experiment [5] (1600 g ae/ha) and 33% in experiment [5] (3200 g ae/ha).
On to `COc1c(Cl)ccc(-c2cc(N)c(Cl)c(C(=O)O)n2)c1F` [Compound I, 4-amino-3-chloro-6-(4-chloro-2-fluoro-3-methoxyphenyl)pyridine-2-carboxylic acid], for which the figures for the “Activity (visual injury, 0 = no injury, 100 = complete kill) PAPRH-Susceptible” value in experiment [1] (7.5 g ae/ha) and in experiment [1] (10 g ae/ha) were 95% and 97%, respectively. Further, the “Activity (visual injury, 0 = no injury, 100 = complete kill) PAPRH-S1F00101” value in experiment [2] (7.5 g ae/ha) and in experiment [2] (10 g ae/ha) was 90% in each case. In addition, the “Activity (visual injury, 0 = no injury, 100 = complete kill) PAPRH-S4F00103” value in experiment [3] (7.5 g ae/ha) was 78%; in experiment [3] (10 g ae/ha), 95%. For the same molecule, the “Activity (visual injury, 0 = no injury, 100 = complete kill) PAPRH-S2F01502” value in experiment [4] (7.5 g ae/ha) amounted to 93%; in experiment [4] (10 g ae/ha), 94%. Besides, the “Activity (visual injury, 0 = no injury, 100 = complete kill) PAPRH-S4F00101” value in experiment [5] (7.5 g ae/ha) is 88%; in experiment [5] (10 g ae/ha), 94%.
In the case of `Cc1cc(Cl)ccc1OCC(=O)O` [MCPA, 2-(4-chloro-2-methyl-phenoxy)acetic acid], the “Activity (visual injury, 0 = no injury, 100 = complete kill) PAPRH-Susceptible” value in experiment [1] (800 g ae/ha) is recorded as 70%; in experiment [1] (1600 g ae/ha), 89%; in experiment [1] (3200 g ae/ha) it was 100%. For the same molecule, the “Activity (visual injury, 0 = no injury, 100 = complete kill) PAPRH-S1F00101” value is 14% in experiment [2] (800 g ae/ha), 23% in experiment [2] (1600 g ae/ha) and 57% in experiment [2] (3200 g ae/ha). Besides, the “Activity (visual injury, 0 = no injury, 100 = complete kill) PAPRH-S4F00103” value in experiment [3] (800 g ae/ha) was 23%; in experiment [3] (1600 g ae/ha), 40%; in experiment [3] (3200 g ae/ha), 57%. The “Activity (visual injury, 0 = no injury, 100 = complete kill) PAPRH-S2F01502” value in experiment [4] (800 g ae/ha) is reported as 28%; in experiment [4] (1600 g ae/ha), 14%; in experiment [4] (3200 g ae/ha) it was 58%. For the same molecule, the entries for the “Activity (visual injury, 0 = no injury, 100 = complete kill) PAPRH-S4F00101” value in experiment [5] (800 g ae/ha), in experiment [5] (1600 g ae/ha) and in experiment [5] (3200 g ae/ha) were 28%, 37% and 60%, respectively.
